The source of these data is EPA's ToxValDB 9.5 (doi:10.2903/j.efsa.2006.85r).

Molecules are shown by their SMILES. ≈ marks a conversion by molar mass, not a printed value.

One data set relates to Tagia sp. To be noted: acute; duration: 14 days; mortality.
The subject of the next data set is Apis mellifera. The following applies: acute; duration: 48 hours; oral; unspecified; mortality.
A further data set concerns Lepomis macrochirus. To be noted: acute; duration: 96 hours; mortality.
In the next data set the test system is Daphnia magna. To be noted: chronic/long-term; duration: 21 days.
The next data set deals with Pimephales promelas. To be noted: chronic/long-term; duration: 34 days; growth.
In a further data set the test system is Canidae. The following applies: oral, Dog Other, clinical chemistry.
In a further data set the test system is Typhlodromus pyri. Briefly: LR50; higher = less toxic. To be noted: not reported; mortality.

As usually defined, the NOAEL is the highest dose or exposure tested at which no adverse effect was seen. `CCOP(=S)(OCC)Oc1cc(C)nc(C(C)C)n1` [Diazinon]: the LC50 with Tagia sp. came out at 65 mg/kg; in the data set on Anas platyrhynchos (short-term, duration: 8 days, oral, feed, mortality) it was 8 mg/kg-day; in the data set with Lepomis macrochirus it was 0.27 µg/mL (≈ 0.887 µM). Also, the NOEL in the data set on Tagia sp. turned out to be 6.15 mg/kg; in the data set with Anas platyrhynchos (reproductive), 1.2 mg/kg-day. The LD50 in the data set on Apis mellifera stood at 0.09 µg/piece; in the data set with Anas platyrhynchos (acute, oral, unspecified, mortality), 1.44 mg/kg; in the data set on Rattus norvegicus (acute, oral, mortality), 1130 mg/kg-day. In addition, the NOEC in the data set on Daphnia magna turned out to be 0.00017 mg/L; in the data set on Rattus norvegicus (reproduction developmental, reproduction) it was 0.65 mg/kg-day; with Pimephales promelas, 0.092 mg/L. Also, the NOAEL came to 2.5 mg/kg-day in the data set with Rattus norvegicus (acute, oral, clinical chemistry); 0.02 mg/kg-day with Canidae (chronic, duration: 52 weeks); 0.02 mg/kg-day in the data set with Canidae (subchronic, duration: 90 days). Further, the LR50 with Typhlodromus pyri came to 0.153 g/ha.
